The target of the assay is BmAsnRS (Brugia malayi asparaginyl-tRNA synthetase) (Brugia malayi, UniProt P10723). Description: nonradioactive pretransfer editing assay, malachite green phosphate detection. It counts as biochemical.

SMILES strings stand for the structures. pIC50: −log10 of the molar value. Numbered stars: 1 amine (or outer) side, 2 acyl side, 3 side chain; on linkers, the order of the positions; unused ones are H or OH. Square brackets hold non-standard residues; d marks the D form. Peptide text beside a SMILES is read from it. * marks the point of attachment. Cinnamoyl(2-(1Z-pentenyl)) = CCC/C=C\c1ccccc1/C=C/C(=O)*; X1 = CN(/C(=C/c1ccc(O)cc1)C(=O)[*:2])[*:1]; aThr = C[C@H](O)[C@H](N)C(=O)O

Sequence of BmAsnRS (Brugia malayi asparaginyl-tRNA synthetase) (P10723 whole entry): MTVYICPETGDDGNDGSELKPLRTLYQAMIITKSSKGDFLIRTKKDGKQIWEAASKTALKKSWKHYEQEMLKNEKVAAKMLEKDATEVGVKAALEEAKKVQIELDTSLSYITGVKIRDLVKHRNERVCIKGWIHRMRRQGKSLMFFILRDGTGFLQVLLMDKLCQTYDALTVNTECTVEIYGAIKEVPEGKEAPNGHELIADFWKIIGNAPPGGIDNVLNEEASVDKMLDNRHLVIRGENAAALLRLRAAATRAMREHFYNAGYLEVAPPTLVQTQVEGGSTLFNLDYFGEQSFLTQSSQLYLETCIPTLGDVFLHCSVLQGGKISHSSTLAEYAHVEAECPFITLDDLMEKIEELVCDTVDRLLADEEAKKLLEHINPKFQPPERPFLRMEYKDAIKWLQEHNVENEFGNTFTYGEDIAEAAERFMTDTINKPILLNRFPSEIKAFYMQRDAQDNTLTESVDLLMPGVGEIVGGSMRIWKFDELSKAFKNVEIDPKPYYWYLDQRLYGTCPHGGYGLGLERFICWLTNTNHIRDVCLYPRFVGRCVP

By pIC50 is commonly meant −log10 of the IC50, conventionally taken in molar units. Consider `CCC/C=C\c1ccccc1/C=C/C(=O)N[C@@H](CO)C(=O)N(C)/C(=C/c1ccc(O)cc1)C(=O)N[C@@H](CC(C)C)C(=O)N[C@H](Cc1ccccc1)C(=O)N[C@H](C(=O)O)[C@H](C)O` [compound 4, WS9326E] ({Cinnamoyl(2-(1Z-pentenyl))}-S[X1]L[dF][aThr]-OH), for which the pIC50 is about 4.12.

On to `CCC/C=C\c1ccccc1/C=C/C(=O)N[C@H](C(=O)N(C)/C(=C/c1ccc(O)cc1)C(=O)N[C@@H](CC(C)C)C(=O)N[C@H](Cc1ccccc1)C(=O)N[C@H](C(=O)O)[C@H](C)O)[C@@H](C)O` [compound 3, WS9326D] ({Cinnamoyl(2-(1Z-pentenyl))}-T[X1]L[dF][aThr]-OH), for which the pIC50 was about 4.30.

The values are drawn from PMC3460372 (Organic letters, 2012).
